Where two headings read alike, the source gives them in different places.
What was measured:
[1] = molecular target: T1, human wild type STING (WT STING) (Homo sapiens, UniProt Q86WV6, H232R); experiment: Digitonin assay using 293T wtSTING-FL reporter cells; type: cell-based; details: 293T wtSTING-FL cells, digitonin buffer 30 minutes, then 5 hours; ISRE firefly luciferase
T1 construct: host or cells: 293T cells (ATCC CRL-3216), stably double transfected with pUNO1-hSTING-WT and pGL64.27-4×ISRE
Source text: (§1) Two complementary oligonucleotides of the sequence […] […] […] […] […] The oligonucleotides were mixed in equal molar amounts, hybridized, and cleaved by restriction endonucleases HindIII (cat. #. R0104S, NEB, Ipswich, USA) and BglII (cat. #R0144S, NEB, Ipswich, USA). Ultimately, they were ligated into plasmid pGL4.27 (cat. #E6651, Promega, Madison, USA) linearized with the same enzymes. As result the sequence with four ISRE sites was placed upstream of the minimum promoter of firefly luciferase reporter gene.
(§2) After 5 minutes incubation at room temperature (RT), 250 μL of the mixture was added dropwise to the cells in one well. Cells were incubated 36 hours at 37° C. with 5% CO2, and then detached with 0.05% Trypsin and 0.22 g/L EDTA (both cat. #L0941, Biowest, Riverside, USA).
(§3) Transfected cells were seeded onto poly-D-lysine coated six well plates at density 50,000 cells per 1 cm^2 in DMEM medium with high glucose containing 10% heat inactivated FBS, 30 μg/mL blasticidin (cat. #ant-b1-05, InvivoGen, San Diego, USA), 0.06 mg/ml Penicillin G and 0.1 mg/ml Streptomycin Sulfate (both cat. #. L0018, Biowest, Riverside, USA). The medium was replenished every 3-4 days until visible colonies of cells resistant to blasticidin were formed.
(§4) Blasticidin resistant cells stably expressing WT STING were further transfected with pGL64.27-4×ISRE plasmid following the same procedure as described above. […] Homogeneous culture of stably double transfected cells was prepared by limiting dilution of cells in 96 well plates and wells with cells were selected that originated from a single cell.
The medium was removed next day and three fold serial dilutions of compounds in Digitonin buffer containing 50 mmol·l^−1 HEPES (cat. #H3375, Sigma Aldrich, Czech Republic) pH 7.0, 100 mmol·l^−1 KCl, 3 mmol·l^−1 MgCl2, 0.1 mmol·l^−1 DTT (cat. #D0632, Sigma Aldrich, Czech Republic), 85 mmol·l^−1 Sucrose (cat. #S7903, Sigma Aldrich, Czech Republic), 0.2% BSA (cat. #A2153, Sigma Aldrich, Czech Republic), 1 mmol·l^−1 ATP (cat. #A1852, Sigma Aldrich, Czech Republic), 0.1 mmol·l^−1 GTP (cat. #G8877, Sigma Aldrich, Czech Republic), and 10 μg/mL Digitonin A (cat. #D141, Sigma Aldrich, Czech Republic) were added to the cells. The buffer was removed after 30 minutes incubation at 37° C. with 5% C02, the cells were washed once with 100 μl of cultivation medium, and 100 μl of medium was added to each well. The plates with cells were incubated for 5 hours at 37° C. with 5% CO2, 50 μl of the medium was removed and 30 μl of ONE-Glo™ Luciferase Assay System reagent (cat. #E6120, Promega, Madison, USA) was added to each well. Luminesce was read on Synergy H1 (Biotek, Winooski, USA).

AQ STING (G230A-R293Q) = molecular target: T2, AQ STING (G230A-R293Q) (Homo sapiens, UniProt Q86WV6, G230A/H232R/R293Q); experiment: Differential Scanning Fluorimetry with AQ STING; type: binding; details: thermal shift vs apoprotein; 150 μM CDN; truncated AQ STING 0.1 mg/ml
T2 construct: 8xHis (N, cleaved yes); SUMO (N, cleaved yes); made in house
Experimental: (§5) Purified PCR products were cleaved with restriction enzymes BamHI (cat. #R0136S, NEB, Ipswich, USA) and NotI (cat. #R0189S, NEB, Ipswich, USA) and cloned into the pSUMO vector linearized with the identical enzymes.
(§6) DNase I (cat. #D5025, Sigma Aldrich, Czech Republic) and RNase A (cat. #R6513, Sigma Aldrich, Czech Republic) were added (final concentration 50 μg/ml) together with MgCl2 (final concentration 5 mmol·l^−1) to the homogenate and bacteria were lysed using French Press G-M™ High-Pressure Cell Press Homogenizer (1500 psi, 3 cycles). […] The resin was poured into a chromatography column, washed with 50 ml buffer A (50 mmol·l^−1 TrisCl (pH 8.0), 800 mmol·l^−1 NaCl, 3 mmol·l^−1 β-mercaptoethanol; 10% glycerol; 20 mmol·l^−1 imidazole) and 8-His-SUMO tagged STING proteins were eluted with 15 ml buffer A containing 300 mmol·l^−1 imidazole. […] Proteins were concentrated with Amicon® Ultra-15 10 K device (cat. #UFC901008, Merck Millipore, Billerica, USA) and flash frozen in liquid N2.
(§7) 20 μL solutions of the reaction mixtures were pipetted in triplicates into 96 well optical reaction plates and thermal denaturation of samples were performed on real time PCR cycler (LightCycler® 480 Instrument II—Roche, Basel, Switzerland). The first derivative of the thermal denaturation curves was performed to calculate denaturing temperatures of STING-CDN complexes and STING apoproteins. The thermal shift for each CDN was calculated by subtracting the average denaturing temperature of STING apoprotein from the average denaturing temperature of STING CDN complex.

[2] = molecular target: T1, human wild type STING (WT STING); experiment: 293T WT STING standard reporter assay; type: cell-based; details: no digitonin, 7 hours, ISRE firefly luciferase
Source text: as §1, §2, §3, §4
The medium was removed the next day and three-fold serial dilutions of compounds in 100 μl medium were added to the cells. The plates were incubated for 7 hours at 37° C. with 5% CO2. Next 50 μl of the medium was removed from wells, and 30 μl of ONE-Glo™ Luciferase Assay System reagent (cat. #E6120, Promega, Madison, USA) was added to each well. Luminescence was read on Synergy H1 (Biotek, Winooski, USA).

WT STING = molecular target: T3, WT STING (Homo sapiens, UniProt Q86WV6, H232R); experiment: Differential Scanning Fluorimetry with WT STING; type: binding; details: thermal shift vs apoprotein; 150 μM CDN; truncated WT STING 0.1 mg/ml
T3 construct: 8xHis (N, cleaved yes); SUMO (N, cleaved yes); made in house
Experimental: as §5, §6, §7

[3] = tested on: peripheral blood mononuclear cell (PBMC); experiment: Peripheral blood mononuclear cell assay (cytokine levels); type: cell-based
Experimental: Selected compounds were tested in an in vitro peripheral blood mononuclear cell (PBMC) assay. […] Serially diluted tested compounds were added to wells in 50 μl of cultivation medium and cell were incubated with compounds for 1 h at 37° C. with 5% CO2. Plates with cells were then spun 500 g for 5 minutes and medium was removed. Cells were washed twice with the cell culture medium by the use of centrifugation and gently resuspended in 100 μl medium without compounds. After 15 hour incubation at 37° C. with 5% CO2, the cell culture medium was collected and the levels of interferon-alpha (INF-α), interferon-gamma (INF-γ) and tumor necrosis factor-alpha (TNF-α) were determined with ProcartaPlex Assays (ThermoFisher, Waltham, USA) and MAGPIX System (Merck KGaA, Darmstadt, Germany). […] Values reported are an average of runs from one to four donors.

[4] = 293T wtSTING-FL cells, read-out: 293T WT STING EC50
[5] = 1 h with compound, wash, 15 hour incubation, average of one to four donors, read-out: PBMC EC50 IFN-α
[6] = 1 h with compound, wash, 15 hour incubation, average of one to four donors, read-out: PBMC EC50 IFN-γ
[7] = 1 h with compound, wash, 15 hour incubation, average of one to four donors, read-out: PBMC EC50 TNF-α
[8] = 293T WT STING EC50, 293T wtSTING-FL cells
[9] = read-out: PBMC EC50 IFN-α, 1 h with compound, wash, 15 hour incubation, average of one to four donors
[10] = read-out: PBMC EC50 IFN-γ, 1 h with compound, wash, 15 hour incubation, average of one to four donors

T2 sequence (Q86WV6 140-343 G230A/H232R/R293Q): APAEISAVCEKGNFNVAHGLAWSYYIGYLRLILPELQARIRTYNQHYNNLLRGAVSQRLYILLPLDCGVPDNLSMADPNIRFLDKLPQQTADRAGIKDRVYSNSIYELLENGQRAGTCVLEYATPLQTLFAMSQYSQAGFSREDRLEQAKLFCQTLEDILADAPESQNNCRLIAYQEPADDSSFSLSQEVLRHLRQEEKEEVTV
T1 sequence (Q86WV6 whole entry H232R): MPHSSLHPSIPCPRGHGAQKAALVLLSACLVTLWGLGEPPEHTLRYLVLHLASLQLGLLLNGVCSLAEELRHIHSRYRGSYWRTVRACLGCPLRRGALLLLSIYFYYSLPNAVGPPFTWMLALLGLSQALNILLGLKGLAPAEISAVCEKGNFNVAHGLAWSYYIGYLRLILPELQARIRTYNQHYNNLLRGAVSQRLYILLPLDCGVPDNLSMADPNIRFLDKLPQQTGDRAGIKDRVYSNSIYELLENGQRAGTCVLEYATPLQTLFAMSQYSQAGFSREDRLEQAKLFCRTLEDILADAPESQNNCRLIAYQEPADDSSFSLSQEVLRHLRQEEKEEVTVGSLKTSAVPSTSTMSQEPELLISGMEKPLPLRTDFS
T3 sequence (Q86WV6 140-343 H232R): as the sequence (Q86WV6 140-343 G230A/H232R/R293Q) above, with A91G, Q154R counted along it

Row | EC50 [2, 4] | Structure (SMILES) | EC50 [3, 5] | EC50 [3, 6] | EC50 [3, 7] | other results
1 | 15000 nM | Nc1ncnc2c1ncn2[C@@H]1O[C@@H]2COP(=O)(S)O[C@H]3[C@@H](F)[C@H](n4cnc5c(N)ncnc54)O[C@@H]3COP(=O)(S)CO[C@H]2[C@H]1F (single isomer, unassigned) [Compound 14a] | – | – | – | EC50 [1]: 60 nM; DSF ΔTm AQ STING (AQ STING (G230A-R293Q)): 16.1 °C; DSF ΔTm WT STING (WT STING): 8.3 °C
2 | 50 nM | CC(C)OC(=O)OCOP1(=O)CO[C@H]2[C@@H](F)[C@H](n3cnc4c(N)ncnc43)O[C@@H]2COP(=O)(OCOC(=O)OC(C)C)O[C@H]2[C@@H](F)[C@H](n3cnc4c(N)ncnc43)O[C@@H]2CO1 (single isomer, unassigned) [Compound 42c] | 600 nM | 300 nM | 600 nM | –
3 | – | CCCCCCCCCCCC(=O)OCSP1(=O)CO[C@H]2[C@@H](F)[C@H](n3cnc4c(N)ncnc43)O[C@@H]2COP(=O)(SCOC(=O)CCCCCCCCCCC)O[C@H]2[C@@H](F)[C@H](n3cnc4c(N)ncnc43)O[C@@H]2CO1 (single isomer, unassigned) [Compound 43b] | – | – | – | EC50 [2, 8]: 30 nM; EC50 [3, 9]: 400 nM; EC50 [3, 10]: 300 nM; EC50 ([3]; read-out: PBMC EC50 TNF-α, PBMC, 1 h with compound, wash, 15 hour incubation, average of one to four donors): 200 nM
4 | – | CCCCCCCCCCCC(=O)OCSP1(=O)CO[C@H]2[C@@H](F)[C@H](n3cnc4c(N)ncnc43)O[C@@H]2COP(=O)(SCOC(=O)CCCCCCCCCCC)O[C@H]2[C@@H](F)[C@H](n3cnc4c(N)ncnc43)O[C@@H]2CO1 (single isomer, unassigned) [Compound 43c] | – | – | – | EC50 [2, 8]: 60 nM; EC50 [3, 9]: 900 nM; EC50 [3, 10]: 100 nM; EC50 ([3]; read-out: PBMC EC50 TNF-α, 1 h with compound, wash, 15 hour incubation, average of one to four donors): 300 nM
5 | 10 nM | CCC(C)(C)C(=O)OCOP1(=O)CO[C@H]2[C@@H](F)[C@H](n3cnc4c(N)ncnc43)O[C@@H]2COP(=O)(OCOC(=O)C(C)(C)CC)O[C@H]2[C@@H](F)[C@H](n3cnc4c(N)ncnc43)O[C@@H]2CO1 (single isomer, unassigned) [Compound 44a] | 1000 nM | 500 nM | 600 nM | –
6 | 6 nM | CCC(C)(C)C(=O)OCOP1(=O)CO[C@H]2[C@@H](F)[C@H](n3cnc4c(N)ncnc43)O[C@@H]2COP(=O)(OCOC(=O)C(C)(C)CC)O[C@H]2[C@@H](F)[C@H](n3cnc4c(N)ncnc43)O[C@@H]2CO1 (single isomer, unassigned) [Compound 44c] | 100 nM | 1700 nM | 1000 nM | –
7 | 60 nM | CC1(C(=O)OCOP2(=O)CO[C@H]3[C@@H](F)[C@H](n4cnc5c(N)ncnc54)O[C@@H]3COP(=O)(OCOC(=O)C3(C)CCCCC3)O[C@H]3[C@@H](F)[C@H](n4cnc5c(N)ncnc54)O[C@@H]3CO2)CCCCC1 (single isomer, unassigned) [Compound 45a] | 1000 nM | 8000 nM | 500 nM | –
8 | 70 nM | CC1(C(=O)OCOP2(=O)CO[C@H]3[C@@H](F)[C@H](n4cnc5c(N)ncnc54)O[C@@H]3COP(=O)(OCOC(=O)C3(C)CCCCC3)O[C@H]3[C@@H](F)[C@H](n4cnc5c(N)ncnc54)O[C@@H]3CO2)CCCCC1 (single isomer, unassigned) [Compound 45c] | 300 nM | 200 nM | 400 nM | –
9 | 5 nM | CCCCCCCC(=O)OCOP1(=O)CO[C@H]2[C@@H](F)[C@H](n3cnc4c(N)ncnc43)O[C@@H]2COP(=O)(OCOC(=O)CCCCCCC)O[C@H]2[C@@H](F)[C@H](n3cnc4c(N)ncnc43)O[C@@H]2CO1 (single isomer, unassigned) [Compound 46a] | 3 nM | – | 1 nM | –
10 | 1 nM | CCCCCCCC(=O)OCOP1(=O)CO[C@H]2[C@@H](F)[C@H](n3cnc4c(N)ncnc43)O[C@@H]2COP(=O)(OCOC(=O)CCCCCCC)O[C@H]2[C@@H](F)[C@H](n3cnc4c(N)ncnc43)O[C@@H]2CO1 (single isomer, unassigned) [Compound 46c] | 20 nM | – | 10 nM | –
11 | 10200 nM | Nc1nc2c(ncn2[C@@H]2O[C@@H]3COP(=O)(O)O[C@@H]4[C@H](O)[C@@H](COP(=O)(O)O[C@@H]2[C@@H]3O)O[C@H]4n2cnc3c(N)ncnc32)c(=O)[nH]1 [2′2′-cGAMP, reference compound] | – | – | – | EC50 [1]: 30 nM; DSF ΔTm AQ STING (AQ STING (G230A-R293Q)): 19.4 °C
12 | 202000 nM | Nc1ncnc2c1ncn2[C@@H]1O[C@@H]2COP(=O)(O)O[C@H]3[C@@H](O)[C@H](n4cnc5c(N)ncnc54)O[C@@H]3COP(=O)(O)O[C@H]2[C@H]1O [3′3′-c-di-AMP, reference compound] | – | – | – | EC50 [1]: 300 nM; DSF ΔTm AQ STING (AQ STING (G230A-R293Q)): 9.0 °C; DSF ΔTm WT STING (WT STING): 2.5 °C
